Converted amounts (≈) assume the structure as drawn.
What was measured:
L1210 cells = assay: cells; format: cell-based; conditions: Mus musculus, L1210, 72 h, read-out: Cytotoxicity TD50 L1210
Experimental: In vitro L1210 cell cytotoxicity assay was done by the method of microculture tetrazolium assay (Alley et al., Cancer Research, 48, 589-601 (1988)). L1210 cells were cultivated in RPMI 1640 medium supplemented with 10% fetal calf serum and […] of 2-mercaptoethanol at 37° C. in humidified 5% CO2 atmosphere to prepare a cell stock. Cells were counted using neubauer hemocytometer and seed in 96 well plates at 100 μl of 0.5×10^4 cells per ml. The test compounds were diluted and 100 μl of the solution was added in triplicate wells to give the final concentration of 10, 5, 1, 0.5 and 0.1 μg/ml. Control wells were identical except that the test compound was absent. These were cultured for three days. Results were assayed using the microculture tetrazolium assay briefly. 50 μl of MTT formazoan working solution (1:5 v/v in culture medium) was added to each well and cultures were incubated at 37° C. for 4 hrs. Culture plates were centrifuged at low speed for 5 minutes. All but 10-20 μl of culture medium supernatant was removed by slow aspiration and replaced by 50 μl of DMSO. The formazoan was dissolved by shaking on a mechanical shaker and read at OD540 on a multiscan spectrophotometer. TD50 values were calculated using the formula: [formula] to give interpolative values between two dilutions.

KB cells = assay: In Vitro KB Cell Cytotoxicity Assay (crystal violet); format: cell-based; conditions: Homo sapiens, 72 h, read-out: Cytotoxicity TD50 KB
Experimental: KB cells were cultivated in Eagles minimum essential medium supplemented with 10% calf serum and incubated at 37° C. in a humidified 5% CO2 atmosphere to prepare a cell stock. Cells were counted using a neubauer hemocytometer and seeded in 96 well plates at 100 μl of 3×10^4 cells/ml and cultured for one day. […] Control wells were identical except that test compound was absent. These were cultured for three days. […] Then stained with 100 μl of 0.05% crystal violet for 15 minutes, washed with water and dried. The wells were eluted with 100 μl of 0.05M NaH2 PO4 /ethanol (1:1 v/v) and read at OD540 on a multiscan spectrophotometer. TD50 values were calculated using the following formula.

Sarcoma 180 = assay: In Vivo Antitumor Activity Against Sarcoma 180; conditions: for Mortality in 12 days: i.p., days 1, 5 and 9
Experimental: Sarcoma 180, 5×10^6 cells were inoculated by S.C. to male ICR mice (6 weeks old) on day 0. Drugs were administered on days 1, 5 and 9. Mice were killed and tumor weight was measured on day 12 after transplantation. The percentage inhibition of tumor growth was calculated from the mean tumor weight of the treated group compared with that of the control group. Number of mice used in each group was between 6 to 10.

[1] = Mus musculus, Sarcoma-180, ip, 288 h, read-out: % Inhibition of tumor growth

SMILES	CC50 (L1210 cells)	CC50 (KB cells)	Mortality in 12 days (Sarcoma 180; 50 mg/kg/day)	inhibition in vivo at 50 mg/kg (Sarcoma 180; [1])	also measured
CC=CC=CC(=O)OC[C@H]1CN2C(=O)C[C@@H]2O1 (relative stereo) [compound 14, (3RS, 5SR)-3-(2,4-Hexadienoyloxyymethyl)-4-oxa-1-azabicyclo [3,2,0]heptan-7-one]	0.65 µg/mL (≈ 2.74 µM)	0.3 µg/mL (≈ 1.26 µM)			
O=C1C[C@@H]2O[C@@H](CO)CN12 [compound 40, (3R,5S)-3-Hydroxymethyl-4-oxa-1-azabicyclo[3,2,0]heptan-7-one]	0.027 µg/mL (≈ 0.189 µM)	0.03 µg/mL (≈ 0.21 µM)			Mortality in 12 days (Sarcoma 180; 0.94 mg/kg/day): 0/7; Mortality in 12 days (Sarcoma 180; 1.88 mg/kg/day): 0/7; Mortality in 12 days (Sarcoma 180; 3.75 mg/kg/day): 0/7; Mortality in 12 days (Sarcoma 180; 7.5 mg/kg/day): 0/7; inhibition in vivo at 0.94 mg/kg (Sarcoma 180; [1]): 56.1%; inhibition in vivo at 1.88 mg/kg (Sarcoma 180; [1]): 63.7%; inhibition in vivo at 3.75 mg/kg (Sarcoma 180; [1]): 69.1%; inhibition in vivo at 7.5 mg/kg (Sarcoma 180; [1]): 77.4%
O=C1C[C@@H]2O[C@H](CCO)CN12 (racemic) [compound 50, (3RS, 5SR)-3-Hydroxyethyl-4-oxa-1-azabicyclo[3,2,0]heptan-7-one]		0.7 µg/mL (≈ 4.45 µM)	0/6	65.3%	
O=C1C[C@@H]2O[C@@H](C[S+]([O-])Cc3ccccc3)CN12 (mixture of isomers) [compound 42, (3RS,5SR)-3-Benzylsulfinylmethyl-4-oxa-1-azabicyclo[3,2,0]heptan-7-one]	0.3 µg/mL (≈ 1.13 µM)	0.1 µg/mL (≈ 0.377 µM)	0/7	64%	
CCCCCCCCCC(=O)OC[C@H]1CN2C(=O)C[C@@H]2O1 (racemic) [compound 8, (3RS, 5SR)-3-Decanoyloxymethyl-4-oxa-1-azabicyclo[3,2,0]heptan-7-one]	0.37 µg/mL (≈ 1.24 µM)	0.3 µg/mL (≈ 1.01 µM)			
O=C(OC[C@H]1CN2C(=O)C[C@@H]2O1)c1ccc(O)cc1 (relative stereo) [compound 21]		2.2 µg/mL (≈ 8.36 µM)	0/6	48.3%	
CC(=O)OC[C@H]1CN2C(=O)C[C@@H]2O1 (racemic) [compound 4, (3RS, 5SR)-3-Acetoxymethyl-4-oxa-1-azabicyclo[3,2,0]heptan-7-one]	0.4 µg/mL (≈ 2.16 µM)	0.4 µg/mL (≈ 2.16 µM)			Mortality in 12 days (Sarcoma 180; 6.25 mg/kg/day): 0/7; Mortality in 12 days (Sarcoma 180; 12.5 mg/kg/day): 0/7; inhibition in vivo at 6.25 mg/kg (Sarcoma 180; [1]): 64%; inhibition in vivo at 12.5 mg/kg (Sarcoma 180; [1]): 70.7%
O=C1C[C@@H]2O[C@@H](C[S+]([O-])c3ccccc3)CN12 (mixture of isomers) [compound 45, (3RS, 5SR)-3-Phenylsulfinylmethyl-4-oxa-1-azabicyclo [3,2,0]heptan-7-one]	0.26 µg/mL (≈ 1.03 µM)	0.3 µg/mL (≈ 1.19 µM)			
CCCC(=O)OC[C@H]1CN2C(=O)C[C@@H]2O1 (racemic) [compound 5, (3RS, 5SR)-3-Butyryloxymethyl-4-oxa-1-azabicyclo [3,2,0]heptan-7-one]	0.45 µg/mL (≈ 2.11 µM)	0.3 µg/mL (≈ 1.41 µM)			
O=C(O)COc1ccc(C(=O)OC[C@H]2CN3C(=O)C[C@@H]3O2)cc1 (relative stereo) [compound 23, Sodium (3RS, 5SR)-4-(4-oxa-1-azabicyclo [3,2,0]heptan-7-one-3-methyloxycarbonyl)phenoxyacetate]		8.7 µg/mL	0/6	23.7%	
O=C(CCl)OC[C@H]1CN2C(=O)C[C@@H]2O1 (racemic) [compound 13, (3RS, 5SR)-3-Chloroacetoxymethyl-4-oxa-1-azabicyclo[3,2,0]heptan-7-one]	0.28 µg/mL (≈ 1.27 µM)	0.5 µg/mL (≈ 2.28 µM)			
COc1ccc(C(=O)OC[C@H]2CN3C(=O)C[C@@H]3O2)cc1 (relative stereo) [compound 20]		0.6 µg/mL (≈ 2.16 µM)			Mortality in 12 days (Sarcoma 180; 3.13 mg/kg/day): 0/7; Mortality in 12 days (Sarcoma 180; 6.25 mg/kg/day): 0/7; Mortality in 12 days (Sarcoma 180; 12.5 mg/kg/day): 0/7; Mortality in 12 days (Sarcoma 180; 25 mg/kg/day): 0/7; inhibition in vivo at 3.13 mg/kg (Sarcoma 180; [1]): 60%; inhibition in vivo at 6.25 mg/kg (Sarcoma 180; [1]): 68.6%; inhibition in vivo at 12.5 mg/kg (Sarcoma 180; [1]): 59.1%; inhibition in vivo at 25 mg/kg (Sarcoma 180; [1]): 74.1%
CCC=CCC=CCC=CCCCCCCCC(=O)OC[C@H]1CN2C(=O)C[C@@H]2O1 (relative stereo) [compound 15]	0.5 µg/mL (≈ 1.24 µM)	0.41 µg/mL (≈ 1.02 µM)			

Reference: patent US5561126A, “4-oxa-1-azabicyclo [3,2,0] heptan-7-one derivatives as antitumor agents” (Taiho Pharmaceutical Co., Ltd., priority 1992, dated 1996)
